# According to ChEMBL document CHEMBL1201861, “Genomics of Drug Sensitity in Cancer screening data, Wellcome Trust Sanger Institute”:
# How the values were obtained:
# Assay in all cases: cells
# SK-MEL-2 = assay type: functional, cell-based, Homo sapiens; conditions: Homo sapiens, SK-MEL-2;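 also: growth inhibition of human SK-MEL-2 cells measured with a cell viability assay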
# Description: SANGER: Inhibition of human SK-MEL-2 cell growth in a cell viability assay.
# MPP-89 = assay type: functional, cell-based, Homo sapiens; conditions: Homo sapiens, MPP-89;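 also: growth inhibition of human MPP-89 cells, read out with a cell viability assay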
# Description: SANGER: Inhibition of human MPP-89 cell growth in a cell viability assay.
# D283 Med = assay type: functional, cell-based, Homo sapiens; conditions: Homo sapiens, D283 Med
# Description: SANGER: Inhibition of human D-283MED cell growth in a cell viability assay.
# EOL1 = assay type: functional, cell-based; conditions: Homo sapiens;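 also: growth inhibition of EoL-1 cells, read out by a cell viability assay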
# Description: SANGER: Inhibition of human EoL-1-cell cell growth in a cell viability assay.
# BB65-RCC = assay type: functional, cell-based, Homo sapiens; conditions: Homo sapiens, BB65-RCC;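 also: growth inhibition of the cell line, measured with a cell viability assay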
# Description: SANGER: Inhibition of human BB65-RCC cell growth in a cell viability assay.
# GOTO = assay type: functional, cell-based, Homo sapiens; conditions: Homo sapiens, GOTO;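 also: growth inhibition of GOTO cells, read out by a cell viability assay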
# Description: SANGER: Inhibition of human GOTO cell growth in a cell viability assay.
# BFTC-905 = assay type: functional, cell-based, Homo sapiens; conditions: Homo sapiens, BFTC-905
# Description: SANGER: Inhibition of human BFTC-905 cell growth in a cell viability assay.
# HuP-T3 = assay type: functional, cell-based, Homo sapiens; conditions: Homo sapiens, HuP-T3;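 also: HuP-T3 cell growth inhibition, read out with a cell viability assay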
# Description: SANGER: Inhibition of human HuP-T3 cell growth in a cell viability assay.
# SW 962 = assay type: functional, cell-based, Homo sapiens; conditions: Homo sapiens, SW 962;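 also: growth inhibition of human SW962 cells, read out by a cell viability assay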
# Description: SANGER: Inhibition of human SW962 cell growth in a cell viability assay.
# CAL-12T = assay type: functional, cell-based, Homo sapiens; conditions: Homo sapiens, CAL-12T;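 also: growth inhibition of human CAL-12T cells, read out with a cell viability assay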
# Description: SANGER: Inhibition of human CAL-12T cell growth in a cell viability assay.
# LAMA-84 = assay type: functional, cell-based; conditions: Homo sapiens;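 also: growth inhibition of LAMA-84 cells, read out with a cell viability assay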
# Description: SANGER: Inhibition of human LAMA-84 cell growth in a cell viability assay.
# LS-1034 = assay type: functional, cell-based, Homo sapiens; conditions: Homo sapiens, LS-1034
# Description: SANGER: Inhibition of human LS-1034 cell growth in a cell viability assay.
# TE-8 = assay type: functional, cell-based, Homo sapiens; conditions: Homo sapiens, TE-8;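 also: growth inhibition of TE-8 cells, measured with a cell viability readout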
# Description: SANGER: Inhibition of human TE-8 cell growth in a cell viability assay.
# ASPC1 = assay type: functional, cell-based, Homo sapiens; conditions: Homo sapiens, ASPC1;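 also: growth inhibition of AsPC-1 cells, read out with a cell viability assay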
# Description: SANGER: Inhibition of human AsPC-1 cell growth in a cell viability assay.
# A-375 = assay type: functional, cell-based, Homo sapiens; conditions: Homo sapiens, A-375;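 also: growth inhibition of A375 cells, read out with a cell viability assay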
# Description: SANGER: Inhibition of human A375 cell growth in a cell viability assay.
# HT-29 = assay type: functional, cell-based, Homo sapiens; conditions: Homo sapiens, HT-29;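 also: growth inhibition of human HT-29 cells, read out by a cell viability assay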
# Description: SANGER: Inhibition of human HT-29 cell growth in a cell viability assay.
# Calu-6 = assay type: functional, cell-based, Homo sapiens; conditions: Homo sapiens, Calu-6;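 also: growth of human Calu-6 cells, read out by a cell viability assay, IC50 marking inhibition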
# Description: SANGER: Inhibition of human Calu-6 cell growth in a cell viability assay.
# NCI-H2405 = assay type: functional, cell-based, Homo sapiens; conditions: Homo sapiens, NCI-H2405;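 also: growth inhibition of the human cell line, read out with a cell viability assay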
# Description: SANGER: Inhibition of human NCI-H2405 cell growth in a cell viability assay.
# HH = assay type: functional, cell-based; conditions: Homo sapiens
# Description: SANGER: Inhibition of human HH cell growth in a cell viability assay.
# 697 = assay type: functional, cell-based; conditions: Homo sapiens
# Description: SANGER: Inhibition of human 697 cell growth in a cell viability assay.
# G-402 = assay type: functional, cell-based, Homo sapiens; conditions: Homo sapiens, G-402
# Description: SANGER: Inhibition of human G-402 cell growth in a cell viability assay.
# LOX IMVI = assay type: functional, cell-based; conditions: Homo sapiens
# Description: SANGER: Inhibition of human LOXIMVI cell growth in a cell viability assay.
# HCC2218 = assay type: functional, cell-based; conditions: Homo sapiens;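 also: cell viability assay read-out, with IC50 given as the concentration that inhibits growth of the cell line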
# Description: SANGER: Inhibition of human HCC2218 cell growth in a cell viability assay.
# SW1783 = assay type: functional, cell-based; conditions: Homo sapiens;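 also: cell growth inhibition measured with a viability assay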
# Description: SANGER: Inhibition of human SW1783 cell growth in a cell viability assay.
# CAL-27 = assay type: functional, cell-based, Homo sapiens; conditions: Homo sapiens, CAL-27;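 also: Viability-based readout, IC50 reflecting inhibition of CAL-27 cell growth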
# Description: SANGER: Inhibition of human CAL-27 cell growth in a cell viability assay.
# CHL-1 = assay type: functional, cell-based, Homo sapiens; conditions: Homo sapiens, CHL-1;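 also: cell growth inhibition, read out with a cell viability assay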
# Description: SANGER: Inhibition of human CHL-1 cell growth in a cell viability assay.
# UMUC3 = assay type: functional, cell-based, Homo sapiens; conditions: Homo sapiens, UMUC3;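 also: growth inhibition of human UM-UC-3 cells, read out with a cell viability assay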
# Description: SANGER: Inhibition of human UM-UC-3 cell growth in a cell viability assay.
# NCI-H1693 = assay type: functional, cell-based, Homo sapiens; conditions: Homo sapiens, NCI-H1693;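 also: growth inhibition of the human cell line, read out with a cell viability assay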
# Description: SANGER: Inhibition of human NCI-H1693 cell growth in a cell viability assay.
# KLE = assay type: functional, cell-based, Homo sapiens; conditions: Homo sapiens, KLE;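 also: growth inhibition of human KLE cells, read out with a cell viability assay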
# Description: SANGER: Inhibition of human KLE cell growth in a cell viability assay.
# no-10 = assay type: functional, cell-based, Homo sapiens; conditions: Homo sapiens;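 also: growth inhibition of no-10 cells, read out with a cell viability assay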
# Description: SANGER: Inhibition of human no-10 cell growth in a cell viability assay.
# MZ2-MEL = assay type: functional, cell-based, Homo sapiens; conditions: Homo sapiens, MZ2-MEL;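 also: growth inhibition of MZ2-MEL cells read out with a cell viability assay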
# Description: SANGER: Inhibition of human MZ2-MEL cell growth in a cell viability assay.
# COLO-829 = assay type: functional, cell-based, Homo sapiens; conditions: Homo sapiens, COLO-829
# Description: SANGER: Inhibition of human COLO-829 cell growth in a cell viability assay.
# KP-N-YS = assay type: functional, cell-based; conditions: Homo sapiens;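 also: cell viability assay measuring inhibition of cell line growth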
# Description: SANGER: Inhibition of human KP-N-YS cell growth in a cell viability assay.
# NCI-H292 = assay type: functional, cell-based, Homo sapiens; conditions: Homo sapiens, NCI-H292;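 also: growth inhibition of NCI-H292 cells, read out with a cell viability assay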
# Description: SANGER: Inhibition of human NCI-H292 cell growth in a cell viability assay.
# MKN-1 = assay type: functional, cell-based, Homo sapiens; conditions: Homo sapiens, MKN-1;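 also: growth inhibition of human MKN1 cells, read out by a cell viability measurement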
# Description: SANGER: Inhibition of human MKN1 cell growth in a cell viability assay.
# Calu-3 = assay type: functional, cell-based, Homo sapiens; conditions: Homo sapiens, Calu-3;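 also: growth inhibition of human Calu-3 cells, determined with a cell viability assay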
# Description: SANGER: Inhibition of human Calu-3 cell growth in a cell viability assay.
# NCI-H358 = assay type: functional, cell-based, Homo sapiens; conditions: Homo sapiens, NCI-H358;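 also: growth inhibition of NCI-H358 human cells, read out with a cell viability assay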
# Description: SANGER: Inhibition of human NCI-H358 cell growth in a cell viability assay.
# T-24 = assay type: functional, cell-based, Homo sapiens; conditions: Homo sapiens, T-24;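 also: growth inhibition of T-24 cells, read out with a cell viability assay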
# Description: SANGER: Inhibition of human T-24 cell growth in a cell viability assay.
# AGS = assay type: functional, cell-based, Homo sapiens; conditions: Homo sapiens, AGS;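 also: growth inhibition of AGS cells, determined with a cell viability assay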
# Description: SANGER: Inhibition of human AGS cell growth in a cell viability assay.
# 786-0 = assay type: functional, cell-based, Homo sapiens; conditions: Homo sapiens
# Description: SANGER: Inhibition of human 786-0 cell growth in a cell viability assay.
# NCI-H1993 = assay type: functional, cell-based, Homo sapiens; conditions: Homo sapiens, NCI-H1993;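 also: growth inhibition of the cancer cell line, assessed with a cell viability assay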
# Description: SANGER: Inhibition of human NCI-H1993 cell growth in a cell viability assay.
# D-247MG = assay type: functional, cell-based, Homo sapiens; conditions: Homo sapiens, D-247MG
# Description: SANGER: Inhibition of human D-247MG cell growth in a cell viability assay.
# A704 = assay type: functional, cell-based, Homo sapiens; conditions: Homo sapiens, A704;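 also: growth inhibition of human A704 cells, read out with a cell viability assay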
# Description: SANGER: Inhibition of human A704 cell growth in a cell viability assay.
# BEN = assay type: functional, cell-based, Homo sapiens; conditions: Homo sapiens, BEN;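 also: growth inhibition of the BEN cell line, read out with a cell viability assay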
# Description: SANGER: Inhibition of human BEN cell growth in a cell viability assay.
# TE-1 = assay type: functional, cell-based, Homo sapiens; conditions: Homo sapiens, TE-1
# Description: SANGER: Inhibition of human TE-1 cell growth in a cell viability assay.
# EGI-1 = assay type: functional, cell-based, Homo sapiens; conditions: Homo sapiens, EGI-1;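 also: cell viability readout used to gauge growth inhibition of EGI-1 cells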
# Description: SANGER: Inhibition of human EGI-1 cell growth in a cell viability assay.
# SH-4 = assay type: functional, cell-based, Homo sapiens; conditions: Homo sapiens, SH-4;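 also: growth inhibition of SH-4 cells, read out with a cell viability assay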
# Description: SANGER: Inhibition of human SH-4 cell growth in a cell viability assay.
# MHH-NB-11 = assay type: functional, cell-based, Homo sapiens; conditions: Homo sapiens, MHH-NB-11;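 also: growth inhibition of human MHH-NB-11 cells, read out by a cell viability assay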
# Description: SANGER: Inhibition of human MHH-NB-11 cell growth in a cell viability assay.
# SK-MES-1 = assay type: functional, cell-based, Homo sapiens; conditions: Homo sapiens, SK-MES-1;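 also: growth inhibition of human SK-MES-1 cells, read out with a cell viability assay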
# Description: SANGER: Inhibition of human SK-MES-1 cell growth in a cell viability assay.
# TE-11 = assay type: functional, cell-based, Homo sapiens; conditions: Homo sapiens, TE-11;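 also: growth inhibition of human TE-11 cells, read out by a cell viability assay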
# Description: SANGER: Inhibition of human TE-11 cell growth in a cell viability assay.
# T98G = assay type: functional, cell-based, Homo sapiens; conditions: Homo sapiens, T98G;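 also: growth inhibition of T98G cells, read out by a cell viability assay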
# Description: SANGER: Inhibition of human T98G cell growth in a cell viability assay.
compound,measurement,setting,value
COc1ccc(-c2ccc3c(N4CCOC[C@@H]4C)nc(N4CCOC[C@@H]4C)nc3n2)cc1CO [AZD-8055],IC50,SK-MEL-2,642 nM
same,IC50,MPP-89,469 nM
same,IC50,D283 Med,147 nM
same,IC50,EOL1,65.7 nM
same,IC50,BB65-RCC,308 nM
same,IC50,GOTO,1740 nM
same,IC50,BFTC-905,621 nM
same,IC50,HuP-T3,> 2000 nM
same,IC50,SW 962,472 nM
same,IC50,CAL-12T,780 nM
same,IC50,LAMA-84,180 nM
same,IC50,LS-1034,> 2000 nM
same,IC50,TE-8,1460 nM
same,IC50,ASPC1,738 nM
same,IC50,A-375,752 nM
same,IC50,HT-29,> 2000 nM
same,IC50,Calu-6,> 2000 nM
same,IC50,NCI-H2405,1150 nM
same,IC50,HH,80.1 nM
same,IC50,697,274 nM
same,IC50,G-402,99.8 nM
same,IC50,LOX IMVI,551 nM
same,IC50,HCC2218,207 nM
same,IC50,SW1783,> 2000 nM
same,IC50,CAL-27,> 2000 nM
same,IC50,CHL-1,327 nM
same,IC50,UMUC3,1480 nM
same,IC50,NCI-H1693,1980 nM
same,IC50,KLE,> 2000 nM
same,IC50,no-10,> 2000 nM
same,IC50,MZ2-MEL,409 nM
same,IC50,COLO-829,> 2000 nM
same,IC50,KP-N-YS,431 nM
same,IC50,NCI-H292,292 nM
same,IC50,MKN-1,> 2000 nM
same,IC50,Calu-3,1650 nM
same,IC50,NCI-H358,> 2000 nM
same,IC50,T-24,> 2000 nM
same,IC50,AGS,1090 nM
same,IC50,786-0,1090 nM
same,IC50,NCI-H1993,> 2000 nM
same,IC50,D-247MG,> 2000 nM
same,IC50,A704,818 nM
same,IC50,BEN,213 nM
same,IC50,TE-1,> 2000 nM
same,IC50,EGI-1,135 nM
same,IC50,SH-4,1080 nM
same,IC50,MHH-NB-11,> 2000 nM
same,IC50,SK-MES-1,438 nM
same,IC50,TE-11,> 2000 nM
same,IC50,T98G,1010 nM
COc1ccc(C2=N[C@@H](c3ccc(Cl)cc3)[C@@H](c3ccc(Cl)cc3)N2C(=O)N2CCNC(=O)C2)c(OC(C)C)c1 [NUTLIN-3],IC50,SK-MEL-2,> 8000 nM
same,IC50,MPP-89,> 8000 nM
same,IC50,D283 Med,3580 nM
same,IC50,EOL1,1270 nM
same,IC50,BB65-RCC,> 8000 nM
same,IC50,GOTO,3840 nM
same,IC50,BFTC-905,> 8000 nM
same,IC50,HuP-T3,> 8000 nM
same,IC50,SW 962,> 8000 nM
same,IC50,CAL-12T,> 8000 nM
same,IC50,LAMA-84,> 8000 nM
same,IC50,LS-1034,> 8000 nM
same,IC50,TE-8,> 8000 nM
same,IC50,ASPC1,> 8000 nM
same,IC50,A-375,4340 nM
same,IC50,HT-29,> 8000 nM
same,IC50,Calu-6,> 8000 nM
same,IC50,NCI-H2405,> 8000 nM
same,IC50,HH,> 8000 nM
same,IC50,697,5450 nM
same,IC50,G-402,3810 nM
same,IC50,LOX IMVI,3860 nM
same,IC50,HCC2218,7630 nM
same,IC50,SW1783,> 8000 nM
same,IC50,CAL-27,> 8000 nM
same,IC50,CHL-1,> 8000 nM
same,IC50,UMUC3,> 8000 nM
same,IC50,NCI-H1693,> 8000 nM
same,IC50,KLE,> 8000 nM
same,IC50,no-10,> 8000 nM
same,IC50,MZ2-MEL,4500 nM
same,IC50,COLO-829,7240 nM
same,IC50,KP-N-YS,> 8000 nM
same,IC50,NCI-H292,3120 nM
same,IC50,MKN-1,> 8000 nM
same,IC50,Calu-3,> 8000 nM
same,IC50,NCI-H358,7450 nM
same,IC50,T-24,> 8000 nM
same,IC50,AGS,6150 nM
same,IC50,786-0,> 8000 nM
same,IC50,NCI-H1993,> 8000 nM
same,IC50,D-247MG,4750 nM
same,IC50,A704,> 8000 nM
same,IC50,BEN,> 8000 nM
same,IC50,TE-1,> 8000 nM
same,IC50,EGI-1,> 8000 nM
same,IC50,SH-4,> 8000 nM
same,IC50,MHH-NB-11,3270 nM
same,IC50,SK-MES-1,> 8000 nM
same,IC50,TE-11,> 8000 nM
same,IC50,T98G,> 8000 nM
